Consider 29 molecules from ChEMBL document CHEMBL1134744, “Discovery and parallel synthesis of a new class of cathepsin K inhibitors” (Bioorg Med Chem Lett, 2001).

The target in experiment [1] is T1, Cathepsin K (Homo sapiens) (UniProt P43235).
T1 sequence (whole entry): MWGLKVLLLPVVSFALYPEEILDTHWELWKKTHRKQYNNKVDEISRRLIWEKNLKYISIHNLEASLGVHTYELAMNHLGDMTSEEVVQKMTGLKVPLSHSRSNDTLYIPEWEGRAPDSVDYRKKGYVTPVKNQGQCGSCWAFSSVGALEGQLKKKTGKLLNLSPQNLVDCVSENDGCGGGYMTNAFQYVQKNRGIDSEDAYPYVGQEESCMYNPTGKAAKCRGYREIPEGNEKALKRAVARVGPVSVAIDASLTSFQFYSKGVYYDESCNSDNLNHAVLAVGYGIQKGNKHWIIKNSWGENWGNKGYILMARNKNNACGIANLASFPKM
The experiment in a line: (§1) Inhibitory activity against cathepsin K. More on the design: concentration or dose not given beside the values. Conditions: concentration not given here.

Experiment [2] has as its target T2, Cathepsin K (Homo sapiens, UniProt P43235).
T2 sequence (P43235 whole entry): T1 sequence (whole entry)
Described as §1.

Experiment [3] concerns the target T2, Cathepsin K. The experiment in a line: Inhibitory activity against Cathepsin K.

By inhibition is commonly meant the change of the read-out against control, counted positive when it falls. A word on the IC50: it is the concentration needed to halve the response being measured. What is called Ki is the equilibrium dissociation constant of an inhibitor or competing ligand from its target.

`O=C(CN1CCCC[C@H]1C(=O)Nc1cccc(-c2ccccc2)c1)c1ccccc1`: in experiment [1], the inhibition was 2%. For the molecule `CC[C@H](C)[C@@H](/C=C/c1ccccc1)NC(=O)[C@@H]1CCCCN1CC(=O)c1c(OC)cccc1OC`, in experiment [2], the IC50 is 700 nM. In the case of `CC[C@H](C)[C@@H](/C=C/c1ccccc1)NC(=O)[C@@H]1CCCCN1CC(C)=O`, the inhibition in experiment [1] was 3%. Consider `O=C(CN1CCCC[C@H]1C(=O)Nc1ccc2oc3ccccc3c2c1)c1ccccc1`, for which the inhibition in experiment [1] is less than 1%. In experiment [1], `CCC(=O)CN1CCCC[C@H]1C(=O)N[C@H](/C=C/c1ccccc1)[C@@H](C)CC` displayed an inhibition of 22%.

On to `CC[C@H](C)[C@@H](/C=C/c1ccccc1)NC(=O)[C@@H]1CCCCN1CC(=O)c1ccc(OC)cc1`, for which the IC50 in experiment [2] worked out at 410 nM. On to `CC(C)[C@@H](/C=C/c1ccccc1)NC(=O)[C@@H]1CCCCN1CC(=O)c1ccccc1`, for which the IC50 in experiment [3] amounted to 780 nM. The molecule `CC(C)C[C@H](NC(=O)OCc1ccccc1)C(=O)NC1CN(C(=O)[C@H](CC(C)C)NC(=O)OCc2ccccc2)CC1=O` (stereo not given in full) gave a Ki in experiment [3] of 2 nM.

In experiment [1], `CC[C@H](C)[C@@H](/C=C/c1ccccc1)NC(=O)[C@@H]1CCCCN1CC(=O)c1ccc(NC(C)=O)cc1` showed an inhibition of 42%. Molecule `CC[C@H](C)[C@@H](/C=C/c1ccncc1)NC(=O)[C@@H]1CCCCN1CC(=O)c1ccccc1` had an inhibition in experiment [1] of 8%. On the same count and under the same terms, the value for `CC[C@H](C)[C@@H](/C=C/c1ccccc1)NC(=O)[C@@H]1CCCN1CC(=O)c1ccccc1` was 15%.

Consider `CC[C@H](C)[C@@H](/C=C/c1ccccc1)NC(=O)[C@@H]1CCCCN1CC(=O)c1ccc2c(c1)OCO2`, for which the IC50 in experiment [2] worked out at 590 nM. The molecule `COc1cc(C(=O)CN2CCCC[C@H]2C(=O)N[C@H](/C=C/c2ccccc2)Cc2ccccc2)cc(OC)c1OC` gave an inhibition in experiment [1] of 20%. In experiment [2], `CC[C@H](C)[C@@H](/C=C/c1ccccc1)NC(=O)[C@@H]1CCCCN1CC(=O)c1ccc(Cl)cc1` displayed an IC50 of 280 nM. For `COc1cc(C(=O)CN2CCCC[C@H]2C(=O)N[C@H](/C=C/c2ccccc2)CC(C)C)cc(OC)c1OC`, in experiment [2], the IC50 came out at 1500 nM. For the molecule `CC[C@H](C)[C@@H](/C=C/c1ccccc1)NC(=O)[C@@H]1CCCCN1CC(=O)c1cccc([N+](=O)[O-])c1`, in experiment [1], the inhibition was found to be 11%. `CC[C@H](C)[C@@H](/C=C/c1ccccc1)NC(=O)[C@@H]1CCCCN1CC(=O)c1ccccc1` came in with a half-inhibitory concentration (IC50) in experiment [2] of 230 nM. The molecule `CC[C@H](C)[C@@H](/C=C/c1ccc(Cl)cc1)NC(=O)[C@@H]1CCCCN1CC(=O)c1ccccc1` registered an IC50 in experiment [2] of 1400 nM. `CC[C@H](C)[C@@H](/C=C/c1ccccc1)NC(=O)[C@@H]1CCCCN1CC(=O)c1ccc([N+](=O)[O-])cc1` displayed an inhibition in experiment [1] of 28%. Molecule `CC[C@H](C)[C@@H](/C=C/c1ccccn1)NC(=O)[C@@H]1CCCCN1CC(=O)c1ccccc1` returned an inhibition in experiment [1] of 26%. For the molecule `CC[C@H](C)[C@@H](/C=C/c1ccccc1)NC(=O)[C@@H]1CCCCN1CC(O)c1cc(OC)c(OC)c(OC)c1` (stereo not given in full), the inhibition in experiment [1] stood at 8%. On the same count and under the same terms, the value for `CC[C@H](C)[C@H](NC(=O)[C@@H]1CCCCN1CC(=O)c1ccccc1)C(=O)Nc1ccccc1` was 8%; that for `CC[C@H](C)[C@@H](/C=C/c1ccccc1)NC(=O)[C@@H]1CCCCN1CC(=O)c1ccc(C#N)cc1` was 16%; that for `CC[C@H](C)[C@@H](/C=C/c1ccccc1)NC(=O)[C@@H]1Cc2ccccc2CN1CC(=O)c1ccccc1` was 29%. In turn, `CC[C@H](C)[C@@H](/C=C/c1ccccc1)NC(=O)[C@@H]1C=CCN1CC(=O)c1ccccc1` showed an inhibition in experiment [1] of 43%. `CC[C@H](C)[C@@H](/C=C/c1ccccc1C)NC(=O)[C@@H]1CCCCN1CC(=O)c1ccccc1`: the IC50 in experiment [2] amounted to 590 nM. For `CC[C@H](C)[C@@H](/C=C/c1ccccc1)NC(=O)[C@@H]1CCCCN1CC(=O)c1cc(OC)c(OC)c(OC)c1`, in experiment [2], the IC50 stood at 1200 nM and the inhibitory constant (Ki) was found to be 790 nM. `CC[C@H](C)[C@@H](/C=C/c1ccc(C)cc1)NC(=O)[C@@H]1CCCCN1CC(=O)c1ccccc1` registered an IC50 in experiment [2] of 740 nM. In turn, `CC(C)C[C@@H](/C=C/c1ccccc1)NC(=O)[C@@H]1CCCCN1CC(=O)c1ccccc1` came in with an IC50 in experiment [2] of 840 nM.
